{
  "source": "patent US10195190B2",
  "about": "“Local delivery forms of acriflavine for treating tumors” (The Johns Hopkins University, priority 2015, dated 2019)",
  "key": {"9 L gliosarcoma": {"tested_on": "9 L gliosarcoma", "test": "Survival of F344 rats intracranially implanted with 9 L gliosarcoma", "type": "in vivo, rat", "details": "for median survival: systemic treatment (ACF 5 mg/kg/daily from Day 0 or Day 5; oral temozolomide 50 mg/kg/day Days 5-9)"}, "[1]": {"tested_on": "9 L rat gliosarcoma cells", "test": "Acriflavine cytotoxicity in vitro, CCK-8 assay, 9 L cells", "type": "cell-based", "details": "9 L rat glioma cells, 24 h co-incubation, read-out: IC50 concentration, cell viability", "protocol": "(§1) The cytotoxicity of ACF was analyzed in rodent 9 L gliosarcoma (obtained from the Brain Tumor Research Center, University of California at San Francisco) and F98 glioma (a gift from R. Barth, Ohio State University) cell lines as well as in commercial and primary human glioblastoma cell lines, U87 (ATCC) and GB1A, respectively. The cells were plated in 96-well plates at a density of 4×10^3 cells/well, cultured for 24 h and treated with ACF (concentration range of 0.2 μM-25 μM). After co-incubation with ACF in medium for 24 h, cell growth was assessed using a CCK-8 assay (Dojindo, Kumamoto, Japan) according to manufacturers' protocol. Data are shown as mean+/−SEM and the inhibitory concentration 50% (IC50)+95% confidence interval and R^2 are reported.\n(§2) The following concentrations of acriflavine: 0.0249 μM, 0.1245 μM, 0.249 μM, 2.5 μM, 25 μM, 50 μM, 500 μM, and 1000 μM were tested. CCK-8 assay was added to the wells, and the optical density was read at 450 nm by a microplate reader."}, "[2]": {"tested_on": "glioma cell lines (9 L gliosarcoma, F98 glioma, U87, GB1A)", "test": "Acriflavine cytotoxicity in vitro, CCK-8 assay, all glioma cell lines tested", "type": "cell-based, rodent and human", "details": "24 h", "protocol": "as §1, §2"}},
  "data": [
    {"compound": "3,6-diamino-10-methylacridinium chloride mixed with 3,6-acridinediamine [ACF]", "values": [
      {"measurement": "survival benefit compared to the control", "setting": "9 L gliosarcoma; systemic ACF started on Day 0 or Day 5", "value": "no benefit in survival"},
      {"measurement": "median survival", "setting": "9 L gliosarcoma", "value": 14, "unit": "days"},
      {"measurement": "IC50", "setting": "[1]", "value": 1070, "unit": "nM"},
      {"measurement": "inhibition of proliferation", "setting": "[2]", "value": "inhibited proliferation in all glioma cell lines tested in a dose-dependent manner"}
    ]},
    {"compound": "Cn1nnc2c(C(N)=O)ncn2c1=O", "note": "[temozolomide, Temozolomide]", "values": [
      {"measurement": "median survival", "setting": "9 L gliosarcoma", "value": 28, "unit": "days"}
    ]}
  ]
}
